Measured values taken from ChEMBL document CHEMBL1156829 (Proc Natl Acad Sci U S A, 2008).

Columns and labels:
[1] = NOVARTIS: Cytotoxicity against human hepatocellular carcinoma cell line (Huh7); assay type: toxicity, cell-based, Huh-7; details: Huh7 cells (hepatocellular carcinoma cell line)
[2] = system: Plasmodium falciparum; experiment: NOVARTIS: Inhibition of Plasmodium falciparum W2 (drug-resistant) proliferation in erythrocyte-based infection assay; assay type: functional, organism-based; details: Plasmodium falciparum, W2; read-out: EC50
[3] = system: Plasmodium falciparum; experiment: NOVARTIS: Inhibition of Plasmodium falciparum 3D7 (drug-susceptible) proliferation in erythrocyte-based infection assay; assay type: functional, organism-based; details: Plasmodium falciparum, 3D7

SMILES	CC50 [1] [nM]	EC50 [2] [nM]	EC50 [3] [nM]
O=C(O)c1nsnc1C(O)C(O)C(=O)O (configuration not stated)	> 10000	> 1240	> 1410
c1ccc2[nH]c(Sc3ncnc4sc5c(c34)CCC5)nc2c1	> 100000	909	6840
COc1ccc(CC(=O)N(CCCC(C)Nc2cc(OC)cc3cccnc23)Cc2ccc(OC)c(OC)c2)cc1 (configuration not stated)	> 10800	666	1200
CCN(CC)CCCN(Cc1cc2ccc(C)cc2[nH]c1=O)C(=S)Nc1cccc(Cl)c1	22100	176	700
CCOc1ccc(C(=O)C[N+]2=C(CC)c3ccc(C)n3CC2)cc1	81000	2190	2440
O=C(c1ccc([N+](=O)[O-])cc1[N+](=O)[O-])N1CCCCC1	> 100000	4860	> 12500
CC(C)NC(=O)c1ccc2c(c1)N=C(c1ccccc1)N(C1CC1)C2	> 10000	117	> 1680
CC(=O)NC(c1ccc(N(C)C)cc1)c1cc(Cl)c2cccnc2c1O (configuration not stated)	> 100000	39.3	651
O=[N+]([O-])c1ccc(S(=O)(=O)N2CCN(C(=S)NCCc3ccccc3)CC2)cc1	> 100000	97.1	97.2
O=C(NC1CCN(CC(O)CN(Cc2ccccc2)S(=O)(=O)c2ccccc2)C1)C1CCCCC1 (configuration not stated)	> 10000	116	185
COc1cccc(/C=C2\SC(=Nc3ccccc3)NC2=O)c1OC	> 100000	1100	521
Brc1cc(Br)c2c(-c3ccccc3)n(-c3ccccc3)nc(-c3ccccc3)c1-2	> 10000	> 1710	753
COc1cccc(NC(=O)Cn2c(C)c(C(C)=O)c3ccccc32)c1	> 100000	713	1760
COc1cc(OC)c(NC(=O)C2c3ccccc3C(=O)N(C)C2c2ccc(OC)c(OC)c2)cc1Cl (configuration not stated)	> 100000	328	983
COC(=O)CC(NC(=O)c1ccc(C)cc1)c1ccc2c(c1)OCO2 (configuration not stated)	15000	206	> 1680
CC12CCC(C(=O)N(CC(O)Cn3c4ccc(Cl)cc4c4cc(Cl)ccc43)C1=O)C2(C)C (configuration not stated)	> 100000	120	118
Cc1ccc(-c2nnc(NCc3ccccc3)c3ccccc23)cc1S(=O)(=O)NCC1CCCO1 (configuration not stated)	> 100000	2570	1850

SMILES	CC50 [1] [nM]	EC50 [2] [nM]	EC50 [3] [nM]
Nc1ccc2nc3ccc(N)cc3[s+]c2c1	11600	143	85.7
C[n+]1oc(C=Cc2ccccc2)cc1C=Cc1ccccc1	21200	28.8	68.8
CC(=O)N(C1=C(N(C)C)C(=O)c2ccccc2C1=O)c1ccc(F)cc1	2680	32	24.4
CN(C)c1ccc(/C=C/c2cccc(/C=C/c3ccc(N(C)C)cc3)[n+]2C)cc1	2530	296	210
N#CC(=Cc1ccccc1OCc1ccc(Cl)cc1Cl)c1nc2ccccc2[nH]1	5050	717	1130
CCN(c1ccccc1)S(=O)(=O)c1ccc(F)c(C(=O)Nc2c(C)cccc2C)c1	> 100000	2450	> 12500
CCOC(=O)CSc1nc2c(sc(=S)n2-c2ccc(Cl)c(C)c2)c(=O)n1-c1ccccc1OC	> 10000	> 884	> 1250
CCOC(=O)c1c(NC(=O)CSc2nnc(CNC(=O)c3cccc(C)c3)n2Cc2ccccc2)sc2c1CCCC2	> 14000	> 1460	> 1090
O=C(O)[C@@H]1C[C@H](CP(=O)(O)O)CCN1 [SELFOTEL]	> 5060	> 1210	1320
O=[N+]([O-])c1cc(NC2OC(CO)C(OC3OC(CO)C(O)C(O)C3O)C(O)C2O)ccc1Cl (configuration not stated)	> 10000	> 1250	> 848
COC(=O)C1CCN(C(=O)COC(c2ccccc2)c2cccnc2Cl)CC1 (configuration not stated)	> 2450	< 7.96	> 1250
CCc1ccc(-n2c(C(CC)N(CCC(C)C)C(=O)Nc3ccc(Cl)c(Cl)c3)nc3ccccc3c2=O)cc1 (configuration not stated)	> 10000	> 830	> 1250
CCN1CCCC1CNC(=O)CN1N=C(c2ccccc2)Cn2c(cc3ccccc32)C1=O (configuration not stated)	> 10000	> 1130	> 1250
O=C(Cn1ccc(=NCc2ccccc2)cc1)c1ccc(I)cc1	20800	448	308
Cc1cccc(C)c1NC(=O)N1CCN(C(=O)c2nc(-c3ccccc3)nc(C)c2C(=O)OC(C)C)CC1C (configuration not stated)	> 10000	642	792
COC(=O)c1ccc(N(C(=O)Cc2c[nH]c3ccccc23)C(C(=O)NC2CCCCC2)c2cccnc2)cc1 (configuration not stated)	> 100000	132	232
COc1cc(C(=O)NC(c2ccccc2Cl)c2cc(Cl)c3cccnc3c2O)cc(OC)c1OC (configuration not stated)	> 100000	3470	6150
